Data published in article PMC12673733, “Hydroxyethylamine & phthalimide analogs restoring defects due to GNE dysfunction: rare disease therapeutic significance” (Molecular Medicine, 2025).
pKd: −log10 of the molar value.

Biological target: T1, r-wtGNE (hGNE1; recombinant wild type GNE) (Homo sapiens, UniProt Q9Y223)
T1 construct: recombinant full-length GNE; expressed in E. coli, partially purified (methods also name pcDNA3.1 vector)
T1 sequence (Q9Y223 1-722): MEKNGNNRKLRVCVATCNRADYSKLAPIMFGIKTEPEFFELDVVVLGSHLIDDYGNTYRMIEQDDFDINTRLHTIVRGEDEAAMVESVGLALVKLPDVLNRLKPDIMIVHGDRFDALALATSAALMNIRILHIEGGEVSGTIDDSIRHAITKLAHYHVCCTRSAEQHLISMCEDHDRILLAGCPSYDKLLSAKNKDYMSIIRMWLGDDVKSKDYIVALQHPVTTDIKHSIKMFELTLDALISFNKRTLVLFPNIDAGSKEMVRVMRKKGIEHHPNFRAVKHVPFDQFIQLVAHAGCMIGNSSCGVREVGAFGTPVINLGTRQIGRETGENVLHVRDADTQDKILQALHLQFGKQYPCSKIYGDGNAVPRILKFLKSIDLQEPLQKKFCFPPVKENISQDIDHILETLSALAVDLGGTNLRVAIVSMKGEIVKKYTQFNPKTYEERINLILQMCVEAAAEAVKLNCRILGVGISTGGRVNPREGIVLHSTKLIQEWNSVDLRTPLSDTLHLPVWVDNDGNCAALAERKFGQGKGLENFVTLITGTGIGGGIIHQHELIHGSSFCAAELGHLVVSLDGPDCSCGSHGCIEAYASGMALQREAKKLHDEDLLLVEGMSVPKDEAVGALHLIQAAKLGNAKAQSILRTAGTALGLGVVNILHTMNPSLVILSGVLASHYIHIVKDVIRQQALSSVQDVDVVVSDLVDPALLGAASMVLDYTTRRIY
Assay: SPR, GNE immobilised on gold chip
Type: binding

Q: With `C[C@H](C(=O)N[C@@H](Cc1ccccc1)[C@@H](O)CN1CCN(Cc2ccccc2)CC1)c1ccccc1` [LTC-181, (S)-N-((2 S,3 S)−4-(4-benzylpiperazin-1-yl)−3-hydroxy-1-phenylbutan-2-yl)−2-phenylpropanamide] as the compound, how does the pKd read?
A: Its pKd is 2.52.
